Data on eight compounds can be found in patent US20030044412A1, “Membrane estrogen receptor-directed therapy in breast cancer” (priority 2002, published 2003).

Read-outs that look alike come from different tables or passages of the source.

Test [1] has as its system MCF-7 human breast cancer cells. Put plainly: Assay of cell proliferation in vitro (cell counts). The format is cell-based. The note with it: for cell growth after brief treatment with BSA conjugate: 0.5 μM for 10 min, 72 h in estrogen-free media.
Test [2] relates to MAPK, ERK-1 (p44) and ERK-2 (p42). Put plainly: p44/42 MAPK phosphorylation/activity in MCF-7 cells. It counts as cell-based, human.
In test [3] the test system is Akt kinase. Put plainly: Akt kinase activity (phosphorylated GSK-3 densitometry) in MCF-7 cells. The format is cell-based, human.
The subject of test [4] is surface membrane ER of MCF-7 (MCF-7 PAR) breast cancer cells. Put plainly: Membrane labeling with E2β-BSA-FITC, fluorescent microscopy and flow cytometry. The format is binding, human.
For test [5], the system named is MAPK, ERK-1 (p44) and ERK-2 (p42). The note with it: independent report (40); cited from earlier work.
Test [6] concerns estrogen receptor. Put plainly: Serine phosphorylation of estrogen receptor in human breast cancer cells. Particulars: prior exposure, 15 minutes after estrogen. The format is cell-based. The procedure: FIG. 12 is a gel showing that the MAPKK (MEK) inhibitor, PD 98059 (PD), reduces estrogen (E2)-induced serine phosphorylation of estrogen receptor. Serine phosphorylation of estrogen receptor in human breast cancer cells was assessed at 15-60 min after treatment with E2 alone or in combination with PD 98059
This blockade of estrogen-induced MAP kinase activation by PD 980959 results in the suppression of estrogen-induced growth of MCF-7 breast cancer cells (see FIG. 13).

Test [7] deals with plasma membranes from MCF-7 human breast cancer cells (membrane-associated estrogen receptor) (Homo sapiens, UniProt P03372). Particulars: 100-fold molar excess of competitor.
Test [8] has as its target T1, HER-2 receptor / estrogen receptor association (Homo sapiens, UniProt P04626+P21860).
T1 construct: endogenous in cells; host or cells: MCF-7 PAR
Put plainly: Immunoprecipitation/Western blot of HER-2 receptor with ER. The format is cell-based. Particulars: 10 nM, 5-60 minutes, MCF-7 cells. The procedure:
MCF-7 breast cancer cells were treated in vitro for 5-60 minutes with 10 nM heregulin, a ligand known to activate HER-2/HER-3 receptors (3). Lysates were prepared and processed as described before (3). Samples were immunoprecipitated with anti-HER-2 antibody (IP:HER-2 receptor) prior to electrophoresis and Western blotting with anti-ER antibody H222 (IB: estrogen receptor). Estrogen receptor normally occurs as a 65- to 70-kd protein (3). The experiment shown here is representative of results from 4 other experiments. In independent experiments in which samples were immunoprecipitated with anti-ER antibody prior to electrophoresis and Western blotting with anti-HER-2 antibody, a similar association between ER and HER-2 receptors was found.
To further evaluate prior reports of cross-communication between ER and HER-2 receptors (3,24,29,54), MCF-7 PAR cells were treated in vitro with heregulin, a ligand for activation of HER-2/HER-3 receptor heterodimers (3). […] MCF-7 breast cancer cells were treated in vitro for 5-60 minutes with 10 nM heregulin, a ligand known to activate HER-2/HER-3 receptors (3). Lysates were prepared and processed as described before (3). Samples were immunoprecipitated with anti-HER-2 antibody (IP: HER-2 receptor) prior to electrophoresis and Western blotting with anti-ER antibody H222 (IB: estrogen receptor). […]

For “6 keto-17α-estradiol 6-(o-carboximethyloxime:BSA [Ab E2α-BSA]”, in test [1], the “cell growth after brief treatment with BSA conjugate” value was “not”.
For “17β-estradiol 17-hemisuccinate covalently linked to bovine serum albumin [Ab E2β-BSA]”, in test [1], the “cell growth after brief treatment with BSA conjugate” value is listed as “stimulates cell growth”. Moreover, in test [1] (10 min treatment, counted after 48 hrs in estrogen-free media, P<0.001), the “proliferative response to short-term treatment” value was “stimulate cell growth”. The “phosphorylation of MAPK isoforms” value in test [2] (10 nM E2β, E2α, 0.5 μM BSA conjugates) is listed as “phosphorylation of MAPK isoforms is again evident”. The “activation of Akt kinase” value in test [3] (10 nM E2β or 0.5 μM E2β-BSA for 20 min) is reported as “significant activation”.
Regarding `N#CC(=C(/N)Sc1ccccc1N)/C(C#N)=C(\N)Sc1ccccc1N` [Ab U0126], the “Inhibition of MCF-7 cell growth” value in test [1] (10 μM for 2 h before VH, 10 nM E2 or 1 μM E2-BSA, 72 h) is reported as “Inhibition”. The “inhibition of MAPK phosphorylation/activation induced by E2β or E2β-BSA” value in test [2] (Ab2 10 μg/ml 2 h or U0126 25 μM 90 min preincubation) is reported as “prevented activation”.
On to `C[C@]12CC[C@@H]3c4ccc(O)cc4C[C@@H](CCCCCCCCC[S+]([O-])CCCC(F)(F)C(F)(F)F)[C@H]3[C@@H]1CC[C@@H]2O` (stereo partly drawn) [ICI 182,780], for which, in test [4], the “competition for E2β-BSA-FITC surface binding (flow cytometry)” value was “significant reduction”. In test [4], the “competition for membrane-associated binding of E2β-BSA-FITC” value was “competitively reduced”. Further, the “blockade of proliferative effect of E2β-BSA” value in test [1] (10 nM ICI 182,780 with 200 nM E2-BSA, 10 min, 48 hrs) is “blocked”; in test [1] (0.5 μM E2β-BSA 10 min, 72 h), “blocked”. The “inhibition of estrogen-induced Akt kinase activation” value in test [3] (preincubation: Ab2 10 μg/ml, ICI 182,780 1 μM, LY294002 10 μM) is reported as “inhibition”. For the same compound, the “inhibition of estrogen-induced MAPK activity in MCF-7 cells” value in test [5] is recorded as “inhibit”.
`COc1cccc(-c2cc(=O)c3ccccc3o2)c1N` [PD 98059]: in test [1] (20 micromolar inhibitor, estradiol-17β at 2 nM), the “suppression of estrogen-induced growth” value was “suppression”. In addition, the “blockade of estradiol activation of MAP kinase” value in test [2] (pre-treatment, 20 μM) is on record as “blocked”. For the same compound, the “suppression of estrogen-induced serine phosphorylation of the estrogen receptor” value in test [6] is “suppressed”.
In the case of `CC(=O)[C@H]1CC[C@H]2[C@@H]3CCC4=CC(=O)CC[C@]4(C)[C@H]3CC[C@]12C` [progesterone], the “competition for membrane-associated binding of E2β-BSA-FITC” value in test [4] (MCF-7 PAR cells, Ab 1 at 1 μg/ml) is given as “not”. The “competition for E2β-BSA-FITC surface binding (flow cytometry)” value in test [4] (MCF-7 cells, P<0.01) is “not effective”. In test [7], the “suppression of [3H]E2β binding to PM by unlabeled competing steroid” value is “essentially uninfluenced”.
On to `C[C@]12CC[C@H]3[C@@H](CCC4=CC(=O)CC[C@@]43C)[C@@H]1CC[C@@H]2O` [testosterone], for which, in test [7], the “suppression of [3H]E2β binding to PM by unlabeled competing steroid” value is on record as “essentially uninfluenced”.
As for heregulin, the “physical association of HER-2 receptor with estrogen receptor” value in test [8] is listed as “promotes physical association”.
